Measured values published in patent US8846720B2, “Pest controlling composition and method for controlling pest” (Sumitomo Chemical Company, Limited, priority 2010, dated 2014).

System: gray mold fungus (Botrytis cinerea)
Assay: Cucumber leaf disk preventive test against gray mold fungus
Assay type: in vivo
Conditions: 15° C., six days
Description: True leaf of cucumber was punched out with cork borer to 13 mm in diameter to prepare a leaf disk. In 24 well microwell plate that was dispensed with 1 ml 0.8% water agar, the leaf disk was placed such that the upper side of the leaf was in an upward direction. […] Control where 20 micro liter ion-exchange water was spread was prepared (for non-treated group). After confirming that the spray solution was dried, conidium of gray mold fungus (Botrytis cinerea) was suspended into potato dextrose broth (DIFCO) in a density of about 10^5 conidia/mL and was then subjected to a spray inoculation. After leaving to stand the leaf disk in a growth chamber set up at 15° C. for six days, an onset area on each leaf was measured and a preventive value was then calculated by the following equation 1.
The same above operations were carried out using the present diamide compound (2c) or the present diamide compound (3) instead of the present diamide compound (2b), so as to obtain the respective preventive values. Preventive value(%)=100×(A−B)/A (Equation 1)
A: an onset area rate of plant belonging to non-treated group
B: an onset area rate of plant belonging to treated Group onset area rate=(onset area of the leaf disk)/(the total area of the leaf disk) […]

CNC(=O)C(OC)c1ccccc1COc1cc(C)ccc1C (centres unmarked) [the present amide compound]
preventive value (%) (the present amide compound alone 1.0 ppm (dimethyl sulfoxide solution)): 46%
preventive value (%) (the present amide compound alone 2.5 ppm (dimethyl sulfoxide solution)): 56%
